Assay results taken from patent US10112935B2, “Indazolyl thiadiazolamines and related compounds for inhibition of Rho-associated protein kinase and the treatment of disease” (Lycera Corporation, priority 2015, dated 2018).

How the values were obtained:
[1] = target: GST-tagged human ROCK1 catalytic domain 1-477 (Homo sapiens (Human), UniProt Q13464); assay: Inhibition of Rho-associated protein kinase isoform 1 (LANCE Ultra ULight-CREBtide FRET kinase assay); type: biochemical; conditions: 30 μM was the highest concentration analyzed
Method: (§1) Exemplary compounds were tested for ability to inhibit Rho-associated protein kinase isoform 1 (ROCK1) and Rho-associated protein kinase isoform 2 (ROCK2). Assay procedures and results are described below.
(§2) Protein constructs were purified from a baculovirus expression system. The peptide substrate was fluorescent LANCE® Ultra ULight-CREBtide: […] (PerkinElmer, # TRF0107-D). […] After a 90 minute incubation at room temperature on a shaker table, the kinase reaction was stopped by addition of 10 mM EDTA, and phosphorylation of the substrate was detected by adding 1 nM LANCE® Ultra Europium-anti-phospho-CREB (ser133) antibody (PerkinElmer, # TRF0200-D) and incubating for 60 minutes on a shaker at room temperature. The flurorescence resonance energy transfer (FRET) signals were read and analyzed on an Envision™ 2103 Multilabel Reader (Perkin Elmer).

[2] = target: GST-tagged human ROCK2 catalytic domain 1-553 (Homo sapiens (Human), UniProt O75116); assay: Inhibition of Rho-associated protein kinase isoform 2 (LANCE Ultra ULight-CREBtide FRET kinase assay); type: biochemical; conditions: for IC50: 30 μM was the highest concentration analyzed; for Selectivity for ROCK2 over ROCK1 (IC50 ROCK1 / IC50 ROCK2): selectivity ROCK2 vs ROCK1
Method: as §1, §2

Chain of GST-tagged human ROCK2 catalytic domain 1-553 (O75116 1-553): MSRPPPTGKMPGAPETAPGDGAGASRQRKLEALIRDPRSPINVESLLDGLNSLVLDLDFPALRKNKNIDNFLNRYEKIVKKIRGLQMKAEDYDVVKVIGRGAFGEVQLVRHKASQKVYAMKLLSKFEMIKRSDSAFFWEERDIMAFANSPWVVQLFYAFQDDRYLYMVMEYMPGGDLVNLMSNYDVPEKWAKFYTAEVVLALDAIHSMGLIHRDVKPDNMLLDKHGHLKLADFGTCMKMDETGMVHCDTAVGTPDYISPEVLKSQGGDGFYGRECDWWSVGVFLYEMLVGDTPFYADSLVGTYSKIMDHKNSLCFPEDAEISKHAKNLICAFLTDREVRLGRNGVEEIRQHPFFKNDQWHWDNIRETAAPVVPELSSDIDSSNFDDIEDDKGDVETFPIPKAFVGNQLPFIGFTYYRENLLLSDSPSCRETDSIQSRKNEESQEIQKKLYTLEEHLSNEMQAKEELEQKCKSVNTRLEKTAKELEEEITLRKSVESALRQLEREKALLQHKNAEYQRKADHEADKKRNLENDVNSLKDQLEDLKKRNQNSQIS
Chain of GST-tagged human ROCK1 catalytic domain 1-477 (Q13464 1-477): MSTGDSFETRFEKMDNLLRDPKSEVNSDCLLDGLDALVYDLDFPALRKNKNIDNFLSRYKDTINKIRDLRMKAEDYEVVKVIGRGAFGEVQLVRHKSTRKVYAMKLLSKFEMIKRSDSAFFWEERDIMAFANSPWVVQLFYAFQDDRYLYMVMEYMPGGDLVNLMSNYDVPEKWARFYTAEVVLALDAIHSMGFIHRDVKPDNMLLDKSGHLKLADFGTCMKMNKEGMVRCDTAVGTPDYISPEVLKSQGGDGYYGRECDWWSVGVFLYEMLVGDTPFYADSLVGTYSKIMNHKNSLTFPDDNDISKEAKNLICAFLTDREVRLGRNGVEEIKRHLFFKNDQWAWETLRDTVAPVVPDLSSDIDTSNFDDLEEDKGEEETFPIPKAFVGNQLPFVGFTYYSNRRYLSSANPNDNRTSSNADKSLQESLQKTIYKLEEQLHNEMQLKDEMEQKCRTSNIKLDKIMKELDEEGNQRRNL

Row | IC50 [1] [µM] | IC50 [2] [µM] | Selectivity for ROCK2 over ROCK1 (IC50 ROCK1 / IC50 ROCK2) [2] | Structure (SMILES)
1 | 1 to 15 | 1 to 15 | <5 | Cc1cnn(CC(=O)Nc2cccc(-c3nnc(N(C)c4ccc5[nH]ncc5c4Cl)s3)c2)c1 [Example 54C]
2 | > 30 | < 1 | >100 | NC(=O)c1cc(-c2ncco2)cc(-c2nnc(Nc3ccc4[nH]ncc4c3Cl)s2)c1 [Example 46L]
3 | 1 to 15 | < 1 | >100 | FC(F)(F)c1nc2c(-c3nnc(Nc4ccc5[nH]ncc5c4Cl)s3)cc(Br)cn2n1 [Example 50B]
4 | > 30 | < 1 | >100 | CC(=O)Nc1cc(-c2nnc(Nc3ccc4[nH]ncc4c3Cl)s2)ccc1C(F)(F)F [Example 48O]
5 | > 30 | < 1 | >100 | Clc1c(Nc2nnc(-c3cccc4[nH]c(-c5cccs5)nc34)s2)ccc2[nH]ncc12 [Example 56B]
6 | > 30 | < 1 | >100 | Clc1c(Nc2nnc(-c3cccc(-c4nccs4)c3)s2)ccc2[nH]ncc12 [Example 46I]
7 | < 1 | < 1 | >5 | Clc1c(Nc2nnc(-c3cccn4cc(C5CCCO5)nc34)s2)ccc2[nH]ncc12 (stereo not shown) [Example 50C]
8 | 15 to 30 | 15 to 30 |  | COc1cccc(-c2nnc(N(CCO)c3ccc4[nH]ncc4c3)s2)c1 [Example 54E]
9 | > 30 | < 1 | >100 | Brc1cc(-c2nnc(Nc3ccc4[nH]ncc4c3)s2)c2nccn2c1 [Example 52F]
10 | 1 to 15 | < 1 | >5 | CC(=O)Nc1cc(CN2CCOCC2)cc(-c2nnc(Nc3ccc4[nH]ncc4c3Cl)s2)c1.O=C(O)C(F)(F)F [Example 48D]
11 | 1 to 15 | < 1 | >5 | Clc1c(Nc2nnc(-c3cccn4cc(C5CCNCC5)nc34)s2)ccc2[nH]ncc12 [Example 50H]
12 | > 30 | < 1 | >100 | Cn1cc(C(=O)Nc2cc(-c3nnc(Nc4ccc5[nH]ncc5c4Cl)s3)ccc2C(F)(F)F)cn1 [Example 48N]
13 | > 30 | > 30 |  | CN(c1nnc(-c2cccc(NC(=O)Cc3ccc(F)cc3)c2)s1)c1ccc2[nH]ncc2c1Cl [Example 75U]
14 | < 1 | < 1 | <5 | Nc1nc(-c2nnc(Nc3ccc4[nH]ncc4c3Cl)s2)c[nH]1 [Example 75W]
15 | < 1 | < 1 | >5 | CC(C)n1ccnc1-c1cccc(-c2nnc(Nc3ccc4[nH]ncc4c3Cl)s2)c1.O=C(O)C(F)(F)F [Example 46A]
16 | 1 to 15 | 1 to 15 |  | CC(=O)Nc1cccc(-c2nnc(N(C)c3ccc4[nH]ncc4c3)s2)c1 [Example 54D]

Continued, compound first:

Row | Structure (SMILES) | IC50 [1] [µM] | IC50 [2] [µM] | Selectivity for ROCK2 over ROCK1 (IC50 ROCK1 / IC50 ROCK2) [2]
17 | CN1CCN(c2cc(-c3nnc(Nc4ccc5[nH]ncc5c4Cl)s3)ccn2)C1=O [Example 38, 1-(4-(5-((4-Chloro-1H-indazol-5-yl)amino)-1,3,4-thiadiazol-2-yl)pyridin-2-yl)-3-methylimidazolidin-2-one] | < 1 | < 1 | >5
18 | c1cc2[nH]ncc2cc1Nc1nnc(C2CCCNC2)s1 (stereo not shown) [Example A-33] | 15 to 30 | 1 to 15 | <5
19 | Cc1ccc(CC(=O)Nc2cccc(-c3nnc(Nc4ccc5[nH]ncc5c4Cl)s3)c2)nc1 [Example 35AO] | > 30 | < 1 | >100
20 | Cn1cc(C(=O)Nc2cccc(-c3nnc(Nc4ccc5[nH]ncc5c4Cl)s3)c2)cn1 [Example A-11] | > 30 | < 1 | >100
21 | CC(=O)N(C)c1cccc(-c2nnc(Nc3ccc4[nH]ncc4c3Cl)s2)c1 [Example 35AZ] | > 30 | 1 to 15 | >5
22 | CS(=O)(=O)Nc1cccc(-c2nnc(Nc3ccc4[nH]ncc4c3)s2)c1 [Example A-19] | > 30 | < 1 | >100
23 | N[C@@H](Cc1ccc(O)cc1)C(=O)Nc1cccc(-c2nnc(Nc3ccc4[nH]ncc4c3Cl)s2)c1.O=C(O)C(F)(F)F [Example 35AK] | < 1 | < 1 | <5
24 | CCOc1ccc(CC(=O)Nc2cccc(-c3nnc(Nc4ccc5[nH]ncc5c4Cl)s3)c2)cc1 [Example 35BE] | > 30 | < 1 | >100
25 | c1cc(-c2ncco2)cc(-c2nnc(Nc3ccc4[nH]ncc4c3)s2)c1 [Example A-30] | > 30 | < 1 | >100
26 | CC(C)(CO)NC(=O)c1cccc(-c2nnc(Nc3ccc4[nH]ncc4c3Cl)s2)c1 [Example 35AR] | 1 to 15 | < 1 | >5
27 | CCCOC(=O)Nc1cc(-c2nnc(Nc3ccc4[nH]ncc4c3Cl)s2)ccn1.O=C(O)C(F)(F)F [Example 35F] | > 30 | < 1 | >100
28 | COc1cccc(-c2nnc(Nc3ccc4[nH]ncc4c3)s2)c1 [Example A-34] | > 30 | < 1 | >100
29 | COc1ccc(C(=O)Nc2cccc(-c3nnc(Nc4ccc5[nH]ncc5c4Cl)s3)c2)cc1 [Example 35BS] | < 1 | < 1 | <5
30 | Cc1cc(CC(=O)Nc2cccc(-c3nnc(Nc4ccc5[nH]ncc5c4Cl)s3)c2)on1 [Example 35BN] | < 1 | < 1 | >5
31 | NC1CCN(C(=O)Nc2cccc(-c3nnc(Nc4ccc5[nH]ncc5c4)s3)c2)C1 (stereo not shown) [Example A-35] | 1 to 15 | < 1 | <5
32 | Cn1cc(CC(=O)Nc2cc(-c3nnc(Nc4ccc5[nH]ncc5c4Cl)s3)ccn2)cn1 [Example 36, N-(4-(5-((4-Chloro-1H-indazol-5-yl)amino)-1,3,4-thiadiazol-2-yl)pyridin-2-yl)-2-(1-methyl-1H-pyrazol-4-yl)acetamide] | < 1 | < 1 | >5

Row | Structure (SMILES) | IC50 [1] [µM] | IC50 [2] [µM] | Selectivity for ROCK2 over ROCK1 (IC50 ROCK1 / IC50 ROCK2) [2]
33 | Cn1nccc1C(=O)Nc1cccc(-c2nnc(Nc3ccc4[nH]ncc4c3)s2)c1 [Example A-43] | > 30 | < 1 | >100
34 | CC(=O)Nc1cccc(-c2nnc(Nc3ccc4[nH]ncc4c3C(C)C)s2)c1 [Example 35I] | > 30 | 1 to 15 | >5
35 | O=C(Nc1cccc(-c2nnc(Nc3ccc4[nH]ncc4c3Cl)s2)c1)c1ccc(F)cc1 [Example 35AW] | < 1 | < 1 | >5
36 | CC(=O)Nc1cccc(-c2nnc(Nc3ccc4[nH]ncc4c3C(F)(F)F)s2)c1 [Example 35AL] | 1 to 15 | < 1 | >5
37 | O=C(Cc1cccc(C(F)(F)F)n1)Nc1cccc(-c2nnc(Nc3ccc4[nH]ncc4c3Cl)s2)c1 [Example 35AI] | < 1 | < 1 | >5
38 | NCc1cncc(C(=O)Nc2cccc(-c3nnc(Nc4ccc5[nH]ncc5c4)s3)c2)c1.O=C(O)C(F)(F)F [Example 35CF] | 1 to 15 | < 1 | >5
39 | CCS(=O)(=O)Nc1cncc(-c2nnc(Nc3ccc4[nH]ncc4c3)s2)c1 [Example A-14] | 1 to 15 | 1 to 15 | >5
40 | CC(C(=O)Nc1cccc(-c2nnc(Nc3ccc4[nH]ncc4c3Cl)s2)c1)c1ccc(F)cc1 (stereo not shown) [Example 35E] | 1 to 15 | < 1 | >50
41 | O=C(O)c1cccc(-c2nnc(Nc3ccc4[nH]ncc4c3)s2)c1 [Example A-9] | 15 to 30 | 1 to 15 | >5
42 | COc1ccc(CC(=O)Nc2cccc(-c3nnc(Nc4ccc5[nH]ncc5c4Cl)s3)c2)cc1 [Example 35BQ] | < 1 | < 1 | >5
43 | Cn1cc(C(=O)Nc2cccc(-c3nnc(Nc4ccc5[nH]nc(F)c5c4)s3)c2)cn1 [Example 35BW] | > 30 | > 30 | 
44 | COc1cccc(-c2nnc(N(CCO)c3ccc4[nH]ncc4c3)s2)c1 [Example A-21] | 15 to 30 | 15 to 30 | <5
45 | Nc1cccc(-c2nnc(Nc3ccc4[nH]ncc4c3)s2)c1 [Example A-47] | > 30 | 1 to 15 | >5
46 | Nc1cccc(-c2nsc(Nc3ccc4[nH]ncc4c3)n2)c1 [Example 35CU] | > 30 | 1 to 15 | >5
47 | O=C(O)COc1cccc(-c2nnc(Nc3ccc4[nH]ncc4c3)s2)c1 [Example 35CO] | 1 to 15 | 1 to 15 | 
